Here are results for 13 compounds from ChEMBL document CHEMBL1136199, “2,6,8,9-tetrasubstituted purines as new CDK1 inhibitors” (Bioorg Med Chem Lett, 2003).

For assay [1], the system named is K562. Kind of assay: cells. The assay is classed as functional, cell-based. Conditions: Homo sapiens.
Description: Cytotoxic property against K562 cell line was determined
The subject of assay [2] is MCF7. Description: cells. The assay is classed as functional, cell-based. Conditions: Homo sapiens.
Description: Cytotoxic property against MCF-7 cell line was determined

For the compound `CCC(CO)Nc1nc(NCc2ccccc2)c2nc(C)n(C(C)C)c2n1` (stereo not given), the IC50 in assay [1] turned out to be 58 µM; in assay [2], 94 µM.

`CC(C)C(CO)Nc1nc(Nc2cccc(Cl)c2)c2nc(Cl)n(C(C)C)c2n1` (stereo not given): the IC50 stood at 21 µM in assay [1] and 45 µM in assay [2].

Consider `CCC(CO)Nc1nc(NCc2ccccc2)c2nc(S)n(C(C)C)c2n1` (stereo not given), for which the half-inhibitory concentration (IC50) stood at 154 µM in assay [1] and 55 µM in assay [2].

Take `CCC(CO)Nc1nc(NCc2ccccc2)c2nc(NCCCO)n(C(C)C)c2n1` (stereo not given): the IC50 in assay [1] is 30 µM; in assay [2], 40 µM.

For `CCC(CO)Nc1nc(NCc2cccc(O)c2)c2nc(Cl)n(C(C)C)c2n1` (stereo not given), the IC50 in assay [1] and in assay [2] was 27 µM throughout.

`CCC(CO)Nc1nc(NCc2ccccc2)c2nc([N+](=O)[O-])n(C(C)C)c2n1` (stereo not given): the IC50 in assay [1] and in assay [2] was 117 µM in each case.

Take `CCC(CO)Nc1nc(NCc2ccccc2)c2nc(Br)n(C(C)C)c2n1` (stereo not given): the IC50 in assay [1] was determined as 27 µM; in assay [2], 53 µM.

Take `CCCOc1nc2c(NCc3ccccc3)nc(NC(CC)CO)nc2n1C(C)C` (stereo not given): the IC50 stood at 20 µM in assay [1] and 50 µM in assay [2].

With `CCC(CO)Nc1nc(NCc2ccccc2)c2nc(N)n(C(C)C)c2n1` (stereo not given), the IC50 in assay [1] was determined as 80 µM; in assay [2], 60 µM.

In the case of `CC(C)n1cnc2c(Nc3cccc(Cl)c3)nc(NC3CCC(N)CC3)nc21` (stereo not given), the IC50 came to 1.4 µM in assay [1] and 1.1 µM in assay [2].

In the case of `Cc1nc2c(Nc3cccc(Cl)c3)nc(NC3CCC(N)CC3)nc2n1C(C)C` (stereo not given), the IC50 in assay [1] is 3.5 µM; in assay [2] it was 8 µM.

Regarding `CCC(CO)Nc1nc(NCc2ccccc2)c2nc(Cl)n(C(C)C)c2n1` (stereo not given), the figures for the IC50 in assay [1] and in assay [2] were 91 µM and 54 µM, respectively.

In the case of `CCC(CO)Nc1nc(NCc2ccccc2)c2nc(O)n(C(C)C)c2n1` (stereo not given), inhibition in assay [1] was half-maximal at 74 µM (IC50).

The IC50 is the concentration that gives 50% inhibition. A lower IC50 goes with greater potency in that assay.
